Data as given in the supplement of paper PMC10307832.

Columns and labels:
Test in all cases: relative viability (nuclei count vs DMSO), 5 days (fraction); higher = more cells survive
[1] = compound: C1COCCN1C2=NC(=NC3=C2OC4=C3C=CC=N4)C5=CC(=CC=C5)NC(=O)C6=CN=C(C=C6)N + CCNC(=O)c1noc(-c2cc(C(C)C)c(O)cc2O)c1-c1ccc(CN2CCOCC2)cc1 [Luminespib] (partner 0.01 µM)
Outline: (§1)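 Relative viability was taken as the ratio of nuclei in treated wells to nuclei in vehicle wells. Lung cancer cell lines in 1536-well plates received compounds by pin tool one day after seeding, either one drug alone or a fixed anchor-drug dose plus five library-drug doses (not always all listed) in √10 steps. Nuclei were counted on 4× images after 5 days of treatment, and values are medians of duplicate plates.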

[2] = compound: CN1CCC(CNc2ccc3ncc(-c4cccc(OC(F)(F)F)c4)n3n2)CC1 [SGI-1776] + Nc1ncn([C@H]2C[C@H](O)[C@@H](CO)O2)c(=O)n1 [Decitabine] (partner 2 µM)
Outline: as §1

[3] = compound: CN1CCC(CNc2ccc3ncc(-c4cccc(OC(F)(F)F)c4)n3n2)CC1 [SGI-1776] + O=C(CCCCCCC(=O)Nc1ccccc1)NO [Vorinostat] (partner 1 µM)
Outline: as §1

[4] = compound: Nc1ccccc1NC(=O)c1ccc(CNC(=O)OCc2cccnc2)cc1 [Entinostat] + CC(C)C[C@H](NC(=O)[C@H](Cc1ccccc1)NC(=O)c1cnccn1)B(O)O [Bortezomib] (partner 0.002 µM)
Outline: as §1

| Cell Line | relative viability ([1]; first compound 0.02 µM) | relative viability ([1]; first compound 0.06325 µM) | relative viability ([1]; first compound 0.2 µM) | relative viability ([1]; first compound 0.6325 µM) | relative viability ([1]; first compound 2 µM) | relative viability ([2]; first compound 0.08 µM) | relative viability ([2]; first compound 0.8 µM) | relative viability ([2]; first compound 2.53 µM) | relative viability ([2]; first compound 8 µM) | relative viability ([3]; first compound 0.08 µM) | relative viability ([3]; first compound 0.8 µM) | relative viability ([3]; first compound 2.53 µM) | relative viability ([3]; first compound 8 µM) | relative viability ([4]; first compound 0.02 µM) | relative viability ([4]; first compound 0.06325 µM) | relative viability ([4]; first compound 0.2 µM) | relative viability ([4]; first compound 0.6325 µM) | relative viability ([4]; first compound 2 µM) |
| --- | --- | --- | --- | --- | --- | --- | --- | --- | --- | --- | --- | --- | --- | --- | --- | --- | --- | --- |
| EKVX | 0.885 | 0.859 | 0.723 | 0.755 | 0.664 | 0.291 | 0.397 | 0.355 | 0.305 | 0.854 | 0.778 | 0.717 | 0.829 | 1.1 | 0.992 | 0.999 | 0.853 | 0.445 |
| EMC-BAC-2 | 1.25 | 1.32 | 1.08 | 1.03 | 0.648 | 0.964 | 0.994 | 1.08 | 0.915 | 0.551 | 0.593 | 0.424 | 0.298 | 1.11 | 1.16 | 1.1 | 0.898 | 0.516 |
| EPLC-272H | 0.242 | 0.588 | 0.401 | 0.271 | 0.33 | 0.371 | 0.365 | 0.395 | 0.322 | 0.468 | 0.505 | 0.545 | 0.249 | 0.889 | 0.848 | 0.879 | 0.299 | 0.204 |
| H3255 | 0.79 | 0.851 | 0.689 | 1.03 | 0.9 | 0.609 | 0.582 | 0.654 | 0.487 | 0.904 | 0.919 | 0.815 | 0.718 | 0.797 | 0.844 | 0.577 | 0.401 | 0.28 |
| HARA | 0.562 | 0.762 | 0.843 | 0.79 | 0.335 | 0.574 | 0.72 | 0.529 | 0.448 | 0.497 | 0.515 | 0.559 | 0.438 | 1.13 | 1.1 | 1.11 | 1.04 | 0.465 |
| HCC-15 | 0.33 | 0.251 | 0.292 | 0.234 | 0.242 | 0.593 | 0.692 | 0.593 | 0.414 | 0.856 | 0.853 | 0.726 | 0.722 | 1.02 | 0.945 | 0.876 | 0.403 | 0.413 |
| HCC-44 | 0.99 | 1.17 | 1.05 | 1.22 | 0.687 | 0.964 | 0.938 | 0.941 | 0.921 | 1.16 | 1.05 | 1.12 | 1.01 | 0.861 | 0.758 | 0.698 | 0.373 | 0.269 |
| HCC-78 |  |  |  |  |  | 0.714 | 0.739 | 0.636 | 0.657 | 0.456 | 0.44 | 0.501 | 0.339 | 0.551 | 0.389 | 0.27 | 0.217 | 0.213 |
| HCC-366 |  |  |  |  |  | 0.335 | 0.382 | 0.373 | 0.316 | 0.462 | 0.418 | 0.392 | 0.266 | 1.08 | 1.15 | 0.831 | 0.41 | 0.0738 |
| HCC-827 | 0.634 | 0.557 | 0.65 | 0.586 | 0.456 | 0.32 | 0.391 | 0.411 | 0.295 | 0.865 | 0.908 | 0.858 | 0.806 | 0.979 | 1.02 | 0.976 | 0.979 | 0.539 |
